Test results reported in patent publication US9963431B2, “Use of quinoline derivatives for improving plant yield” (BAYER CROPSCIENCE AG, priority 2013, dated 2018).

How the values were obtained:
[1] = tested on: Triticum aestivum variety “AC Harvest”; assay: Growth chamber trial, grain yield after post-emergence spray application; assay type: in vivo; conditions: for Relative, %: grain yield relative to UTC = 100; for Relative, % / Difference (%) vs. UTC: 10 gai/ha of each active ingredient (mixtures 10 + 10); for Difference (%) vs. UTC: grain yield; for Grain Yield, g/plant: growth chamber, spray at BBCH 56-61, 10 gai/ha of each active ingredient (mixtures 10 + 10)
[2] = tested on: Oil seed rape (spring; Canola); assay: Field trial, oil seed rape grain yield after post emergence application; assay type: in vivo; conditions: 100 gai/ha
Excerpt: (§1) The trials have been carried out under natural field conditions (plot trials, 10 sqm, 4 replications) with spray applications using 100-300 l/water per hectare.
(§2) The applications have been done as post emergence treatments straight (alone, 1 application). The growth stage of the crops species at the time of application are reported in the single tables as well as the dose rates of the active ingredients applied.
(§3) The trials have been harvested after crops reached the full maturity. After the harvest, the total weights of grains (kernels/seeds) per plot were taken. Afterwards the seed samples were dried to 14% moisture. The freshweight were calculated to a uniform dry weight of 86% for all harvested plots. The results are reported as means over 4 replications per treatment based on 14% moisture resp. 86% dry weight. The time interval (in days) between applications and harvest time are also described in the single tables.

[3] = tested on: Spring wheat; assay: Field trial, spring wheat grain yield after post emergence application; assay type: in vivo; conditions: 100 gai/ha; for Relative, %: yield relative to UTC = 100
Excerpt: as §1, §2, §3

[4] = tested on: Corn; assay: Field trial, corn grain yield after post emergence application; assay type: in vivo; conditions: for Relative, %: yield relative to UTC = 100
Excerpt: as §1, §2, §3

[5] = tested on: Triiticum aestivum seeds (TRZAS); assay: Seed treatment trial, grain yield of plants from treated seeds; assay type: in vivo, Triticum aestivum
[6] = GS 39, harvest 80 days after application
[7] = GS 55, harvest 72 days after application
[8] = 20 gai/ha, mid-post, harvest 76 days after application
[9] = 100 gai/ha, GS 33, harvest 84 days after application
[10] = grain yield relative to UTC = 100, 1 gai/kg seed
[11] = 250 gai/ha, mid-post, harvest 76 days after application

Structure (SMILES) | Relative, % [1] [%] | Difference (%) vs. UTC [1] | Grain Yield, g/plant [1] [g/plant] | Difference (%) vs. UTC ([5]; 1 gai/kg seed) | Grain Yield, g/plant ([5]; 1 gai/kg seed) [g/plant] | Relative, % [5, 10] [%] | also measured
O=[N+]([O-])NC1=NCCN1Cc1ccc(Cl)nc1 [lmidacloprid, imidacloprid] | 107.5 | +7.5% | 1.14 |  |  |  | 
CN/C(=N\[N+](=O)[O-])NCc1cnc(Cl)s1 [Clothianidin, clothianidin] | 112.3 | +12.3% | 1.19 |  |  |  | 
CCCCCC(C)OC(=O)COc1ccc(Cl)c2cccnc12 (stereo not drawn) [CQM, 1-methylhexyl (5-chloro-8-quinolinoxy)acetate] | 103.7 | +3.7% | 1.10 | +9.4% | 1.97 | 109.4 | Difference (%) vs. UTC ([2]; GS 60, harvest 49 days after application): +4.0%; Yield, dt/ha ([2]; late post emergence, begin of flowering (GS 60), harvest 49 days after application): 18.4 dt/ha; Relative, % ([2]; yield relative to UTC = 100, GS 60, harvest 49 days after application): 104.0%; Difference (%) vs. UTC [3, 6]: +9.0%; Difference (%) vs. UTC [3, 7]: +7.0%; Yield, dt/ha ([3]; late post emergence, ear heading (GS 55), harvest 72 days after application): 40.2 dt/ha; Yield, dt/ha ([3]; post emergence, flag leaf stage (GS 39), harvest 80 days after application): 41.7 dt/ha; Relative, % [3, 6]: 109.0%; Relative, % [3, 7]: 107.0%; Difference (%) vs. UTC [4, 8]: +2.4%; Yield, dt/ha [4, 8]: 94 dt/ha; Difference (%) vs. UTC [4, 9]: +9.0%; Yield, dt/ha ([4]; 100 gai/ha, post emergence, stem elongation stage (GS 33), harvest 84 days after application): 52.7 dt/ha; Relative, % [4, 8]: 102.4%; Relative, % [4, 9]: 108.0%; Difference (%) vs. UTC ([5]; 0.5 gai/kg seed): +14.4%; Grain Yield, g/plant ([5]; 0.5 gai/kg seed): 2.06 g/plant; Relative, % ([5]; grain yield relative to UTC = 100, 0.5 gai/kg seed): 114.4%
COCC(=O)N(c1c(C)cccc1C)C(C)C(=O)OC (stereo not drawn) [metalaxyl] | 107.5 | +7.5% | 1.14 | −15.6% | 1.52 | 84.4 | 
CON=C(C(=O)OC)c1ccccc1CON=C(C)c1cccc(C(F)(F)F)c1 [Trifloxystrobin, trifloxystrobin] | 105.7 | +5.7% | 1.12 |  |  |  | 
N#Cc1nn(-c2c(Cl)cc(C(F)(F)F)cc2Cl)c(N)c1[S+]([O-])C(F)(F)F (stereo not drawn) [Fipronil, fipronil] | 112.3 | +12.3% | 1.19 |  |  |  | 
N#Cc1c[nH]cc1-c1cccc2c1OC(F)(F)O2 [Fludioxonil, fludioxonil] |  |  |  | +14.4% | 2.06 | 114.4 | 
CC1COC(Cn2cncn2)(c2ccc(Oc3ccc(Cl)cc3)cc2Cl)O1 (stereo not drawn) [Difenoconazole, difenoconazole] | 96.2 | −3.8% | 1.02 | −10% | 1.62 | 90 | 
CO/C=C(/C(=O)OC)c1ccccc1Oc1cc(Oc2ccccc2C#N)ncn1 [Azoxystrobin, azoxystrobin] | 115.1 | +15.1% | 1.22 |  |  |  | 
OC(Cc1ccccc1Cl)(Cn1nc[nH]c1=S)C1(Cl)CC1 (stereo not drawn) [Prothioconazole, prothioconazole] | 96.2 | −3.8% | 1.02 |  |  |  | 
COC(=O)N(OC)c1ccccc1COc1ccn(-c2ccc(Cl)cc2)n1 [Pyraclostrobin, pyraclostrobin] | 117.0 | +17.0% | 1.24 |  |  |  | Difference (%) vs. UTC [4, 11]: −15.2%; Yield, dt/ha [4, 11]: 78 dt/ha; Relative, % [4, 11]: 84.8%
